The text below walks through data of US8119116B2, “Therapeutics for cancer using 3-bromopyruvate and other selective inhibitors of ATP production” (John Hopkins University School of Medicine, priority 2001, dated 2012).

pIC50: −log10 of the molar value.

One series relates to "metastatic" lung tumors. The series can be described thus: Systemic delivery via marginal ear vein, effect on metastatic lung tumors. It counts as in vivo, rabbit. The conditions noted are these: 25 ml, 0.5 mM, 4 days. How it is done: (§1) Normal tissues and tumors were fixed in 10% formalin, sliced at […] intervals for gross examination, and then embedded completely in paraffin after which […] sections were stained with hemotoxylin and eosin. Tumor viability was estimated by visual inspection and expressed as a percentage of viable tumor area for each slice. The overall percentage of viable tumor in each rabbit was calculated.
(§2) Finally, it was important to examine the effect of 3-BrPA when delivered systemically (i.e., via the general circulation) on both animal toxicity and its capacity to damage liver implanted tumors.

Another series deals with AS-30D hepatoma cells. The series can be described thus: Hepatoma cell viability by trypan blue. The following applies: 5 mM, 12 h. The series is classed as cell-based, rat. As for the experimental part:
AS-30D hepatoma cells grown in the peritoneal cavity of Sprague Dawley female rats (see Materials) were adapted to grow in tissue culture in Dulbecco's modified Eagle's medium containing 10% fetal bovine serum. Cells were maintained at 37° C. in a humidified atmosphere containing 5% CO2, and counted in a Neubauer chamber after trypan blue dye addition (cell/dye volume=1/1) by visualization under a Nikon inverted microscope.
The studies described above using the VX2 tumor model for liver cancer predict that 2DOG and 3BrPA may have the capacity to kill hepatoma cells expressing the high glycolytic/high hexokinase phenotype. […] Cell killing was assessed in these experiments by counting those cells in which trypan blue had entered.

Series [1] concerns liver implanted VX2 tumors. The series can be described thus: Systemic delivery via marginal ear vein, effect on liver implanted VX2 tumors. The series is classed as in vivo, rabbit. The conditions noted are these: 25 ml, 0.5 mM via a marginal ear vein. As for the experimental part:
as §1, §2

A further series has as its system VX2 tumor slices. The series can be described thus: Glycolysis (lactic acid formation) in VX2 tumor slices. It counts as cell-based, rabbit. How it is done:
Glycolysis was assayed by monitoring the formation of lactic acid following the addition of glucose to a medium containing VX2 tumor slices. Specifically, freshly excised tumors were washed 3 times at 4° C. in 20 ml Chance Hess Medium containing 6.2 mM KCl, 154 mM NaCl, and 11 mM NaPi, pH 7.4. Slices, 1 g each, were then prior incubated for 30 min in a Lab-Line incubator-shaker at 37° C. in 2 ml of the same medium while shaking at 50 rpm. Glucose was then added to give a final concentration of 6 mM, after which the incubation/shaking process was continued with 0.2 ml samples being removed every 30 min for up to 2 h. These samples were subjected to centrifugation at 14,000 rpm in an Eppendorf Centrifuge (Model 5415C). Then, aliquots of the supernatant, 0.01 ml, were removed from each sample, diluted with 0.03 ml of water and subjected to lactic acid determination using the kit supplied by Sigma. The latter contains, in addition to lactic dehydrogenase and NAD+, hydrazine, and glycine buffer, pH 9.2. The mixture was incubated for 30 min at 25° C. after which the absorbance due to formation of NADH was determined at 340 nm using a Gilford Model 260 spectrophotometer. To assess the elevation of the glycolytic activity of the VX2 tumor over that of liver tissue, parallel studies were always carried out in an identical manner with 1 g liver slices derived from the host liver. Finally, in those cases where agents were tested for their capacity to inhibit glycolysis, these were introduced into the system at the prior incubation step with all subsequent steps being run in parallel with those described above for the VX2 tumor or liver alone.
The screen included the following 9 compounds: 2-deoxyglucose (2DOG), 2-fluoro-2-deoxyglucose, 6-fluoro-6-deoxyglucose, 3-O-methyl glucose, 5-thio-D-glucose-6-phosphate, L-glucose, D-xylose, D-lyxose, and 3-bromopyruvic acid (3BrPA). The screen was conducted by incubating VX2 tumor slices in a medium containing 6 mM glucose with 6 mM of each of these agents at 37° C. for 5 h. The use of 6 mM glucose in the medium was used to mimic the maximal amount of glucose that might be in the blood in a real in vivo situation.
With the above preliminary data at hand, only two of the 9 compounds screened were studied in more detail. One was 2DOG because under certain conditions it is known to inhibit glycolysis when it is phosphorylated by hexokinase to 2DOG-6-P which cannot be further metabolized. The other compound tested in more detail was 3BrPA because of its effectiveness as a glycolytic inhibitor in the preliminary screen.

Series [2] deals with surrounding liver tissue and major tissues. As to the kind of experiment: Histology of surrounding liver and major tissues after intraarterial injection or embolization. The conditions noted are these: rabbit, in vivo. As for the experimental part:
Administration of anesthesia, intravenous access and sodium pentothal anesthesia were carried out as described in Example 12. Transcatheter hepatic artery injection of 3-BrPA was performed under fluoroscopy. The animals were brought to the angiography suite and intubated using a size 3.0 mm endotracheal tube (Mallinkrodt Medical, St. Louis, Mo.) but not ventilated. Surgical cut-down was performed to gain access into the right common femoral artery, after which a 3 French sheath (Cook Inc., Bloomington, Ind.) was placed. A specially manufactured 2 French catheter with a tip in the shape of a hockey-stick (JB1 catheter, Cook Inc., Bloomington, Ind.) was manipulated into the celiac axis after which a celiac arteriogram was performed in order to delineate the blood supply to the liver and confirm the location of the tumor. The tumor could readily be visualized as a region of hypervascular blush located on the left side of the liver near the gastric fundus. […]
Normal tissues and tumors were fixed in 10% formalin, sliced at […] intervals for gross examination, and then embedded completely in paraffin after which […] sections were stained with hemotoxylin and eosin. Tumor viability was estimated by visual inspection and expressed as a percentage of viable tumor area for each slice. The overall percentage of viable tumor in each rabbit was calculated. […]

For `O=C(O)C(=O)CBr` [3BrPA, 3-bromopyruvic acid], the “size of secondary tumors in the lungs” value in the series on "metastatic" lung tumors is on record as “only very small tumors”. Also, the “"metastatic" lung tumors greater than 1 mm in diameter” value with "metastatic" lung tumors (5 in untreated animals) was “almost complete disappearance and none”. Further, the “cells killed (trypan blue uptake)” value in the series with AS-30D hepatoma cells is “killing all cells”. Besides, in series [1], the “killing effect on liver implanted VX2 tumors” value is on record as “no killing effect”. Moreover, in the series on VX2 tumor slices (6 mM agent, 6 mM glucose, 37° C., 5 h), the “inhibition of VX2 tumor glycolysis in the limited screen” value is given as “almost completely inhibited”. Moreover, the pIC50 in the series on VX2 tumor slices (Oryctolagus cuniculus, 0.5 h, read-out: half maximal inhibition of glycolysis) is 2.62. For the same molecule, the “concentration for maximal or complete inhibition of glycolysis” value with VX2 tumor slices (VX2 tumor slices, agent prior incubated 30 min at 37° C.) is listed as “about 15 mM”. In series [2], the “damage to 9 major tissues” value is given as “In no case was there evidence for damage”; the “state of portal veins, sinusoids and bile ducts” value is given as “remained completely intact”.
